Source: patent EP4596561A1, “PHOSPHORUS-CONTAINING COMPOUND, PHARMACEUTICAL COMPOSITION AND USE THEREOF” (Suzhou Genhouse Bio Co., Ltd., priority 2022, dated 2024)

Test system: MSTO-211H cells
Assay: Pharmacodynamic test, MSTO-211H subcutaneous xenograft
Format: in vivo, nude mice (BALB/c nu/nu)
Conditions: MSTO-211H xenograft
Protocol: Healthy female nude mice (BALB/c nu/nu) aged 6-8 weeks were housed in an SPF environment in accordance with animal ethical guidelines. The well-growing 5M MSTO-211H cells were harvested through trypsin digestion, washed in phosphate-buffered saline (PBS), and then resuspended in PBS containing 50% matrigel (BD Biosciences).
Subcutaneous injection was then performed at the dorsolateral sites of the mice, and the tumor volume was measured once every three days thereafter. When the tumor volume reached around 150-200 mm^3, the mice were randomly assigned to different treatment groups. Any one of the compounds described herein was prepared accordingly and administered at an appropriate dose. Finally, the tumor growth in the nude mice was analyzed after 4 to 6 weeks based on the growth of the tumors.

Row | SMILES | TGI (25mpk QD) [mpk QD TGI = 107.93%] | TGI (50mpk QD) | TGI (150mpk QD)
1 | CP(C)(=O)c1ccc2c(Oc3ccc(C(F)(F)F)cc3)cccc2c1 [Example 7] | 25 | – | –
2 | Cn1cnc(-c2cc(P(C)(C)=O)cnc2Nc2ccc(C(F)(F)F)cc2)c1 [Example 8] | – | 50mpk QD TGI = 104.28% | –
3 | Cn1cnc(-c2cc(P(C)(C)=O)ccc2Nc2ccc(C(F)(F)F)cc2)c1 [Example 14] | – | 50mpk QD TGI = 100.43% | 150mpk QD TGI = 118.27%
4 | CP(C)(=O)c1cnc(Nc2ccc(C(F)(F)F)cc2)c(-c2cn3c(n2)CCC3)c1 [Example 22] | – | – | 150mpk QD TGI = 102.62%
